In brackets after ≈: the same amount, converted by molar mass.
Assays:
[1] = target: T1, Kappa-type opioid receptor (Homo sapiens, UniProt P41145); assay: Inhibition of KOP (unknown origin) at 10 uM relative to control
MOLM-13 [2] = assay: Antitumor activity against human MOLM-13 cells xenografted in NSG mouse assessed as tumor growth inhibition at 0.125 mg/kg,po administrated daily for 10 days relative to control; format: functional; conditions: MOLM-13, 240 h, time 10 day, read-out: TGI
[3] = Tmax in C57BL mouse at […] measured upto 24 hrs by LC-MS/MS analysis; format: ADME, organism-based; conditions: in vivo
[4] = Cmax in C57BL mouse at […] measured upto 24 hrs by LC-MS/MS analysis; format: ADME, organism-based; conditions: in vivo
[5] = Equilibrium solubility of compound in SGF at pH 1 using crystalline form incubated for 2 to 5 days by HPLC analysis; format: ADME; conditions: time 2-5 day
[6] = Equilibrium solubility of compound in FaSSIF at pH 6.5 using crystalline form incubated for 2 to 5 days by HPLC analysis; format: ADME; conditions: time 2-5 day
[7] = Half life in human hepatocyte; format: ADME, cell-based; conditions: hepatocytes
[8] = Lipophilicity, logD of compound; format: physicochemical; conditions: octanol/water
[9] = Inhibition of Calcium ion channel (unknown origin); set-up: species or system Homo sapiens
[10] = Half life in rat hepatocyte; format: ADME, cell-based; conditions: hepatocytes
[11] = Clearance in cynomolgus monkey at 1 mg/kg,iv; format: ADME, organism-based, Macaca fascicularis; conditions: in vivo
[12] = Cmax in cynomolgus monkey at 10 mg/kg,po; format: ADME, organism-based, Macaca fascicularis; conditions: in vivo
MOLM-13 [13] = assay: Antitumor activity against human MOLM-13 cells xenografted in NSG mouse assessed as tumor growth inhibition at 0.031 mg/kg,po administrated daily for 10 days relative to control; format: functional; conditions: MOLM-13, 240 h, time 10 day, read-out: TGI
[14] = Metabolic stability in mouse liver microsomes assessed as half life incubated upto 60 mins in presence of NADPH by LC-MS/MS analysis; format: ADME, Microsome
[15] = Metabolic stability in human liver microsomes assessed as half life incubated upto 60 mins in presence of NADPH by LC-MS/MS analysis; format: ADME, Microsome
MOLM-13 [16] = assay: Antiproliferative activity against human MOLM-13 cells assessed as inhibition of cell growth incubated for 72 hrs by CellTiter-Glo assay; format: functional, cell-based; conditions: MOLM-13, 72 h
[17] = target: T1, Kappa-type opioid receptor; assay: Inhibition of KOP (unknown origin)
[18] = target: T2, Dihydroorotate dehydrogenase (quinone), mitochondrial (Homo sapiens, UniProt Q02127); assay: Binding affinity to recombinant human DHODH assessed as half life
CYP3A4 [19] = target: T3, CYP3A4 (Homo sapiens, UniProt P08684); assay: Induction of CYP3A4 in cryopreserved human hepatocytes using midazolam as substrate assessed as fold change at 10 uM relative to control; format: ADME, cell-based, Hepatocyte; conditions: probe midazolam, read-out: FC
[20] = target: T2, Dihydroorotate dehydrogenase (quinone), mitochondrial; assay: Binding affinity to recombinant human DHODH assessed as dissociation constant by surface plasmon resonance assay
[21] = AUC (0 to infinity) in C57BL mouse at 2 mg/kg,iv measured upto 24 hrs by LC-MS/MS analysis; format: ADME, organism-based; conditions: in vivo
[22] = Metabolic stability in dog liver microsomes assessed as half life incubated upto 60 mins in presence of NADPH by LC-MS/MS analysis; format: ADME, Canis lupus familiaris, Microsome
[23] = Toxicity in NSG mouse xenografted with human MOLM-13 cells assessed as change in body weight at 0.031 to 0.25 mg/kg,po administrated daily for 10 days relative to control; format: organism-based; conditions: in vivo, 240 h, dose 0.031-0.25 mg/kg, time 10 day
[24] = target: T4, AhR (aryl hydrocarbon receptor) (Homo sapiens, UniProt P35869); assay: Activation of AhR (unknown origin) assessed as fold change at 1 to 10 uM relative to control; conditions: dose 1-10 µM, read-out: FC
T4 sequence (P35869 whole entry): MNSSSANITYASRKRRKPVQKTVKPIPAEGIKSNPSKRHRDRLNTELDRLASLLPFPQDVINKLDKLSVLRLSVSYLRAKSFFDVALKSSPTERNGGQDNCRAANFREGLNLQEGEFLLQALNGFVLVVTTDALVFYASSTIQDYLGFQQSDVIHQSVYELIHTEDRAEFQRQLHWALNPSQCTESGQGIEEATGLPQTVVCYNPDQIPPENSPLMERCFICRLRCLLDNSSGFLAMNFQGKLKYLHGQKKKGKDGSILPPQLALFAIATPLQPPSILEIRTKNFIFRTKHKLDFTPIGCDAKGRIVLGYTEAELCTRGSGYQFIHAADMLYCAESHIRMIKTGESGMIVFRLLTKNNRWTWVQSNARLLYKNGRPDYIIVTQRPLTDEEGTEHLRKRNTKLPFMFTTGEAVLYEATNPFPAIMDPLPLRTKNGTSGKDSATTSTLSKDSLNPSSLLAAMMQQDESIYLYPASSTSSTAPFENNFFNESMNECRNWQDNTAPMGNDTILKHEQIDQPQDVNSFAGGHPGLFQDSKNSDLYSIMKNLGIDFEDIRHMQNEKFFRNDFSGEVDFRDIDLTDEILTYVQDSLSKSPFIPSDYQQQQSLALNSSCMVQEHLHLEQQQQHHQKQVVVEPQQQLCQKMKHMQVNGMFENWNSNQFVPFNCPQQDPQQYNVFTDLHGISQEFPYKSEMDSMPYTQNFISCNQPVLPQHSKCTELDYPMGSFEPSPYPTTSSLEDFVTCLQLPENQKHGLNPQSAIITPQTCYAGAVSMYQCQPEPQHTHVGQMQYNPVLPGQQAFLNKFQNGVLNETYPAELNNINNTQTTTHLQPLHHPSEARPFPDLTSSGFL

[25] = Plasma protein binding in C57BL mouse at 1 uM incubated for 6.5 hrs by LC-MS/MS analysis; format: ADME, cell-free; conditions: read-out: PPB (converted)
[26] = Equilibrium solubility of compound in PBS at pH 7 incubated for 2 to 5 days by HPLC analysis; format: physicochemical; conditions: time 2-5 day
MOLM-13 [27] = assay: Antitumor activity against human MOLM-13 cells xenografted in NSG mouse assessed as tumor growth inhibition at 0.062 mg/kg,po administrated daily for 10 days relative to control; format: functional; conditions: MOLM-13, 240 h, time 10 day, read-out: TGI
[28] = Half life in monkey hepatocyte; format: ADME, cell-based, Macaca mulatta; conditions: rhesus monkey, hepatocytes
[29] = Passive permeability across apical to basolateral side in dog MDCK-MDR1 cells; format: ADME, cell-based, Canis lupus familiaris
[30] = Half life in C57BL mouse at 2 mg/kg,iv measured upto 24 hrs by LC-MS/MS analysis; format: ADME, organism-based; conditions: in vivo
[31] = Half life in cynomolgus monkey at 1 mg/kg,iv; format: ADME, organism-based, Macaca fascicularis; conditions: in vivo
CYP3A4 [32] = target: T3, CYP3A4; assay: Induction of CYP3A4 in cryopreserved human hepatocytes using midazolam as substrate assessed as fold change at 1 uM relative to control; format: ADME, cell-based, Hepatocyte; conditions: probe midazolam, read-out: FC
[33] = Metabolic stability in monkey liver microsomes assessed as half life incubated upto 60 mins in presence of NADPH by LC-MS/MS analysis; format: ADME, Macaca mulatta, Microsome; conditions: rhesus monkey
[34] = Half life in mouse hepatocyte; format: ADME, cell-based; conditions: hepatocytes
[35] = target: T5, Aryl hydrocarbon receptor (Homo sapiens, UniProt P35869); assay: Activation of AhR (unknown origin) at 1 to 10 uM; conditions: dose 1-10 µM
T5 sequence (P35869 whole entry): T4 sequence (P35869 whole entry)

[36] = Tmax in cynomolgus monkey at 10 mg/kg,po; format: ADME, organism-based, Macaca fascicularis; conditions: in vivo
[37] = Equilibrium solubility of compound in PBS at pH 2 incubated for 2 to 5 days by HPLC analysis; format: physicochemical; conditions: PBS, time 2-5 day

T2 sequence (Q02127 whole entry): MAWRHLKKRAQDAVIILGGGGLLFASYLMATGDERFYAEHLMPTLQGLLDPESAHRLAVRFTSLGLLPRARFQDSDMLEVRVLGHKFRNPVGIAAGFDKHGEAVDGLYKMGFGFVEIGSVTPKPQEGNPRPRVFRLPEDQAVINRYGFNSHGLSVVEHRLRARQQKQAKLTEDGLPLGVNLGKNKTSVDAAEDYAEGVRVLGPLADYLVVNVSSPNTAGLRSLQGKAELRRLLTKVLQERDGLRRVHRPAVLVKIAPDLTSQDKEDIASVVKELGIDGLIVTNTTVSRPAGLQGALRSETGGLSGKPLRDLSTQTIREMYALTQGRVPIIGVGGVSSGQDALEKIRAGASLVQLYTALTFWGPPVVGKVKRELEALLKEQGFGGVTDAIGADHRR
T1 sequence (P41145 whole entry): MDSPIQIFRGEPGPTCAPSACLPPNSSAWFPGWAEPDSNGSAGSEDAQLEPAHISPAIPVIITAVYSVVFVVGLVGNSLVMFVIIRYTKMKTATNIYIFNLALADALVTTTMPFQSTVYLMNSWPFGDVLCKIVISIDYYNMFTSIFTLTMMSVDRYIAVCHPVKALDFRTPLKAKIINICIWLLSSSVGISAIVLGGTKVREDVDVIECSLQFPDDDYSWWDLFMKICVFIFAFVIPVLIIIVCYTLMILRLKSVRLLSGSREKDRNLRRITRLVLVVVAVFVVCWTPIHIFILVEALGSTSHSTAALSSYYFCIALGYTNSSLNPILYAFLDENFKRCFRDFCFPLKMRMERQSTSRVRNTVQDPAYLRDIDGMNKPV
T3 sequence (P08684 whole entry): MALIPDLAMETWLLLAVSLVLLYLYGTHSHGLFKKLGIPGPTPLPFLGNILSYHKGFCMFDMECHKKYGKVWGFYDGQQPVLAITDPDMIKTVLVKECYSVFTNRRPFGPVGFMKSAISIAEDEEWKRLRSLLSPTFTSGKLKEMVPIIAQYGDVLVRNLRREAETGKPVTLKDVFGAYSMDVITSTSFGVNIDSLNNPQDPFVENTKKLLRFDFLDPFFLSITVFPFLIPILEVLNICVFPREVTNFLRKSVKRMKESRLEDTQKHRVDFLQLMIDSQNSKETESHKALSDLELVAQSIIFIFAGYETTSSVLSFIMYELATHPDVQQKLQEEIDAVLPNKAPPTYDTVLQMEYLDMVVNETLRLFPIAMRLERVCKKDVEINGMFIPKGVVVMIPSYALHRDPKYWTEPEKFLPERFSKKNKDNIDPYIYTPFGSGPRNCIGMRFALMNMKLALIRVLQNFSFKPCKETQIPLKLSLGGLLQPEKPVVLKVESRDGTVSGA

inhibition [1]: 96%
Tmax [3]: 1.7 h
Cmax [4]: 6200 ng/mL
solubility thermodynamic [5]: 25 µg/mL (≈ 57.3 µM)
solubility thermodynamic [6]: 67 µg/mL (≈ 153 µM)
half-life [7]: > 6.18 h
logD [8]: 2.7
IC50 [9]: > 10000 nM
half-life [10]: > 6.18 h
clearance [11]: 2.4 mL/min/kg
Cmax [12]: 5800 ng/mL
half-life [14]: > 3 h
half-life [15]: > 3 h
IC50 (MOLM-13 [16]): 0.19 nM
IC50 [17]: 14000 nM
T1/2 [18]: 0.328 h
fold induction at 10 µM (CYP3A4 [19]): 2.5
Kd [20]: 2.22 nM
AUC [21]: 57200 ng·h/mL
half-life [22]: 0.958 h
fold induction [24]: < 2
fraction unbound at 6.5 h, 1 µM [25]: 0.088
solubility thermodynamic [26]: 371 µM (≈ 162 µg/mL)
half-life [28]: > 6.18 h
Papp A→B [29]: 33.1 ×10⁻⁶ cm/s
half-life [30]: 5.7 h
half-life [31]: 6.4 h
fold induction at 1 µM (CYP3A4 [32]): < 2
half-life [33]: > 3 h
half-life [34]: > 6.18 h
Activity [35]: Not Active
Tmax [36]: 3.3 h
solubility thermodynamic [37]: 325 µM (≈ 142 µg/mL)
SMILES: CCn1c(CO)nn(-c2cc3c(C(C)C)cn(-c4ccccc4C)c(=O)c3cc2F)c1=O
inhibition in vivo at 0.125 mg/kg (MOLM-13 [2]): 92%
inhibition in vivo at 0.031 mg/kg (MOLM-13 [13]): 42%
Activity [23]: Toxic
inhibition in vivo at 0.062 mg/kg (MOLM-13 [27]): 75%

Reference: ChEMBL document CHEMBL5584243, “Discovery of JNJ-74856665: A Novel Isoquinolinone DHODH Inhibitor for the Treatment of AML” (J Med Chem, 2024)
